In paper PMC5693770 (Cell chemical biology, 2017):

Key:
PPP2R1A [1] = molecular target: T1, PPP2R1A (Homo sapiens, UniProt P30153); assay: gel-based ABPP, competition with IAyne labeling; format: binding
CLIC4 = CLIC4 (Homo sapiens, UniProt Q9Y696); assay: in situ competitive isoTOP-ABPP in […]MFP cells, light to heavy ratio […]; format: cell-based
ACAT1 = molecular target: T2, ACAT1 (Homo sapiens, UniProt P24752); assay: as above; format: cell-based
T2 sequence (P24752 34-427): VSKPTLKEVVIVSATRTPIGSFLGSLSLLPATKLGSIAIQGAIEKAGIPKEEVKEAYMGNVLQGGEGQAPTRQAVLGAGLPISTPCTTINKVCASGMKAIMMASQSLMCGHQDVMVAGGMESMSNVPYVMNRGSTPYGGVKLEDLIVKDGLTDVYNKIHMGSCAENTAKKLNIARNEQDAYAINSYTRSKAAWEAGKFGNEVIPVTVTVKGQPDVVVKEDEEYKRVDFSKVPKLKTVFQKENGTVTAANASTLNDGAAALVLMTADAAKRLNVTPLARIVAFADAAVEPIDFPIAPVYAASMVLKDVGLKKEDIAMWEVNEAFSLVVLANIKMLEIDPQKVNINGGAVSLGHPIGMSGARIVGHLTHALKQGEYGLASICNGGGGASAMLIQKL

SCP2 = molecular target: T3, SCP2 (Homo sapiens, UniProt P22307); assay: as above; format: cell-based
T3 sequence (P22307 1-547): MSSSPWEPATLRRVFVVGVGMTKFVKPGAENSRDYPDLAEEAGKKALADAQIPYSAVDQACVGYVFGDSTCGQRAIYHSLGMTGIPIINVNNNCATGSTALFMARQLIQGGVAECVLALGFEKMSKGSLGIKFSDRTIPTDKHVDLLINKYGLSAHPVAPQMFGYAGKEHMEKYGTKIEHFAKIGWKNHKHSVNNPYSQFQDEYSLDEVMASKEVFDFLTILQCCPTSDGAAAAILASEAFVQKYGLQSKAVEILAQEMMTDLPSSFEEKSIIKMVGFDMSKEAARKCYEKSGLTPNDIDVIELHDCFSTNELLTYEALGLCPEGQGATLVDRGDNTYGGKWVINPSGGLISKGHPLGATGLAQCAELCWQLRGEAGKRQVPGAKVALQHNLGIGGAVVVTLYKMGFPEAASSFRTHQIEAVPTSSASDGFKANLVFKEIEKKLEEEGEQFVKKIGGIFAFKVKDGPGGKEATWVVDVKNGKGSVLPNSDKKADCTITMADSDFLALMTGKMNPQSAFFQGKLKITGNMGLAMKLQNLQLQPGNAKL

TXNDC17 = molecular target: T4, TXNDC17 (Homo sapiens, UniProt Q9BRA2); assay: as above; format: cell-based
T4 sequence (Q9BRA2 2-123): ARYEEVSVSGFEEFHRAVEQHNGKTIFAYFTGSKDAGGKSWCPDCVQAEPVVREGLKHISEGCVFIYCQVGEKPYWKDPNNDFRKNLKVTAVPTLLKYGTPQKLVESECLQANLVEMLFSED

PPP2R1A [2] = molecular target: T1, PPP2R1A; assay: gel-based ABPP, competition with IAyne labeling of pure protein; format: binding
PPP2R1A [3] = molecular target: T1, PPP2R1A; assay: as above; format: binding; remark: listed apart in the source

T1 sequence (P30153 2-589): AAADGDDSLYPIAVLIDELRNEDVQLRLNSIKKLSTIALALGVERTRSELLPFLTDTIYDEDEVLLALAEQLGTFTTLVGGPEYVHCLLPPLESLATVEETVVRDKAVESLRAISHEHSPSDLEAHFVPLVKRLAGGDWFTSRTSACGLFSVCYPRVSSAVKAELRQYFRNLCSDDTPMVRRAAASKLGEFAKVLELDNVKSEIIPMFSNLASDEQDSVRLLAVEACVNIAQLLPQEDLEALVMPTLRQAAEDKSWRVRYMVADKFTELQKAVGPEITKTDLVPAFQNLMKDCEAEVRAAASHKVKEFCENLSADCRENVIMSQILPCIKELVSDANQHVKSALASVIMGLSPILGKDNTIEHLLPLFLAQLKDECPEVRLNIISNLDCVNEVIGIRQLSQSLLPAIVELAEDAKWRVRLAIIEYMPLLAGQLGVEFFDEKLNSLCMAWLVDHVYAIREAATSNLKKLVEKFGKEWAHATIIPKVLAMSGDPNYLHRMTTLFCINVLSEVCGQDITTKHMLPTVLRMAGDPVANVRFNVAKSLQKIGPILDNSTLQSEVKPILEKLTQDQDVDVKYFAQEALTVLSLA
Sequence of CLIC4 (Q9Y696 2-253): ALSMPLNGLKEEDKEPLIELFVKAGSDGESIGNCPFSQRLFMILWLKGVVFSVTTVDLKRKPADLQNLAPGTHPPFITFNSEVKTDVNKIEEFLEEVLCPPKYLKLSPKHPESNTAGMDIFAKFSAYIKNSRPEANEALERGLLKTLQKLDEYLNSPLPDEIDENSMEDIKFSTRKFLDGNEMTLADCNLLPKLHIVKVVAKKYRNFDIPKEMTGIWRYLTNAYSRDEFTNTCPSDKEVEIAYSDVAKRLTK

O=C(CCl)Nc1ccc2c(c1)CCCC2 [JNS 1-37]
IC50 (PPP2R1A [1]): 300 µM

DKM 2-90
in situ competitive isoTOP-ABPP in 231MFP cells, light to heavy ratio >5 (CLIC4): > 5 light to heavy ratio
in situ competitive isoTOP-ABPP in 231MFP cells, light to heavy ratio >5 (ACAT1): > 5 light to heavy ratio
in situ competitive isoTOP-ABPP in 231MFP cells, light to heavy ratio >5 (SCP2): > 5 light to heavy ratio
in situ competitive isoTOP-ABPP in 231MFP cells, light to heavy ratio >5 (TXNDC17): > 5 light to heavy ratio
IC50 (PPP2R1A [2]): 10 µM

O=C(CCl)N(Cc1ccccc1)c1ccc2c(c1)OCCO2 [JNS 1-40]
IC50 (PPP2R1A [3]): 0.63 µM
